Measurements reported in EP4745118A1, “HYDROXAMIC ACID COMPOUND OR PHARMACEUTICALLY ACCEPTABLE SALT THEREOF, AND USE THEREOF AND PREPARATION METHOD THEREFOR” (priority 2023, dated 2025).
In brackets after ≈: the same amount, converted by molar mass. Like-named read-outs stand apart in the source and are kept apart here.

Columns and labels:
[1] = tested on: Shigella flexneri; assay: In vitro antibacterial activity, agar dilution method (MIC); format: cell-based; conditions: ATCC12022, Shigella flexneri ATCC 12022, 35°C, 18 hours, read-out: MIC
Method: According to the relevant operating procedures of the Clinical Laboratory Standards Institute (CLSI) in the United States, an antimicrobial susceptibility testing was conducted using the agar dilution method. A 1920 µg/mL stock solution was serially diluted twofold with sterile water to obtain dilutions of 960, 480, 240, 120, 60, 30, 15, 7.5, 3.75, 1.88, 0.94, 0.47 µg/mL, and 1 mL of the dilution was taken respectively from the dilutions with different concentrations and added to a Petri dish, to which 14 mL of melted MH agar medium was added and mixed thoroughly, and the final concentration of the drug in the petri dish is 128, 64, 32, 16, 8, 4, 2, 1, 0.5, 0.25, 0.12, 0.06, and 0.03 µ g/mL, respectively. The agar was allowed to solidify and set aside for later use.
(§1) The test bacteria were propagated in broth and adjusted to a turbidity of 0.5 McFarland (approximately 1-2 × 10^8 CFU/mL) using a turbidimeter before inoculation. The 0.5 McFarland bacterial solution was then diluted 10-fold in broth (approximately 1-2 × 10^7 CFU/mL). A multipoint inoculator was used to inoculate the above bacterial solution onto a series of plates containing different concentrations of drugs (with an inoculation amount of approximately 10^4 CFU per inoculation site). After incubation at a constant temperature of 35°C for 18 hours, results were observed. The minimum concentration of drugs contained in sterile growth plates was determined as the Minimal Inhibitory Concentration (MIC).

[2] = tested on: Enterobacter aerogenes; assay: as above; format: cell-based; conditions: Klebsiella aerogenes
Method: (§2) According to the relevant operating procedures of the Clinical Laboratory Standards Institute (CLSI) in the United States, an antimicrobial susceptibility testing was conducted using the agar dilution method. […]. The agar was allowed to solidify and set aside for later use.
as §1

[3] = tested on: Pantoea agglomerans; assay: as above; format: cell-based
Method: as §2, §1

[4] = tested on: Escherichia coli; assay: as above; format: cell-based; conditions: Escherichia coli
Method: as §2, §1

[5] = tested on: Pseudomonas aeruginosa; assay: as above; format: cell-based
Method: as §2, §1

[6] = tested on: Proteus mirabilis; assay: as above; format: cell-based
Method: as §2, §1

[7] = tested on: Serratia marcescens; assay: as above; format: cell-based
Method: as §2, §1

[8] = tested on: Citrobacter freundii; assay: as above; format: cell-based
Method: as §2, §1

[9] = tested on: Proteus vulgaris; assay: as above; format: cell-based
Method: as §2, §1

[10] = tested on: Klebsiella pneumoniae; assay: as above; format: cell-based; conditions: Klebsiella pneumoniae
Method: as §2, §1

[11] = tested on: ICR strain mice; assay: Acute toxicity in mice, single tail vein injection; format: in vivo; conditions: one week
Method: Healthy ICR strain mice weighing 20-21 g were taken for the experiment, randomly divided into groups of 3 mice per group, regardless of gender. Each compound was administered via a single tail vein injection at a volume of 20 mL/kg. Animal responses were observed immediately postadministration and monitored for one week. The number of animal deaths was recorded and mortality rates calculated.

[12] = ATCC13048, Enterobacter aerogenes ATCC 13048, agar dilution, 35°C, 18 hours, read-out: MIC
[13] = ATCC27993, Pantoea agglomerans ATCC 27993, agar dilution, 35°C, 18 hours, read-out: MIC
[14] = 18 h, Escherichia coli 13-43 (mcr-1), agar dilution, 35°C, 18 hours, read-out: MIC
[15] = 18 h, Escherichia coli 17-R28 (CRE, NDM-1-producing), agar dilution, 35°C, 18 hours, read-out: MIC
[16] = ATCC2469, 18 h, Escherichia coli ATCC 2469 (CRE, NDM-1-producing), agar dilution, 35°C, 18 hours, read-out: MIC
[17] = ATCC35218, 18 h, Escherichia coli ATCC 35218 (ESBLs-producing), agar dilution, 35°C, 18 hours, read-out: MIC
[18] = Pseudomonas aeruginosa PAO1, agar dilution, 35°C, 18 hours, read-out: MIC
[19] = ATCC49565, Proteus mirabilis ATCC 49565, agar dilution, 35°C, 18 hours, read-out: MIC
[20] = ATCC21074, Serratia marcescens ATCC 21074, agar dilution, 35°C, 18 hours, read-out: MIC
[21] = ATCC43864, Citrobacter freundii ATCC 43864, agar dilution, 35°C, 18 hours, read-out: MIC
[22] = ATCC29905, Proteus vulgaris ATCC 29905, agar dilution, 35°C, 18 hours, read-out: MIC
[23] = 18 h, Klebsiella pneumoniae 09-20 (mcr-1), agar dilution, 35°C, 18 hours, read-out: MIC
[24] = 18 h, Klebsiella pneumoniae 17-R27 (CRE), agar dilution, 35°C, 18 hours, read-out: MIC
[25] = 18 h, Klebsiella pneumoniae 18-8 (ESBLs-producing), agar dilution, 35°C, 18 hours, read-out: MIC
[26] = ATCC700603, 18 h, Klebsiella pneumoniae ATCC 700603 (ESBLs-producing), agar dilution, 35°C, 18 hours, read-out: MIC
[27] = ATCCBAA2146, 18 h, Klebsiella pneumoniae ATCC BAA-2146 (CRE, NDM-1-producing), agar dilution, 35°C, 18 hours, read-out: MIC

Work on COC[C@H]1C[C@@H]1C#CC#Cc1ccc(C(=O)N[C@H](C(=O)NO)C(C)(C)N)cc1 [Ib, N-(S)-3-amino-1-hydroxyamino-3-methyl-1-oxobutan-2-yl-4-[[(1S,2S)-2-(methoxymethylene)cyclopropyl]but-1,3-diynyl]benzamide] yielded an MIC [1] of 0.12 µg/mL (≈ 0.313 µM), an MIC ([2]; ATCC13048, 18 h) of 0.5 µg/mL (≈ 1.3 µM) and an MIC ([3]; Pantoea agglomerans, ATCC27993, 18 h) of 1 µg/mL (≈ 2.61 µM). The MIC ([4]; 18 h, Escherichia coli 13-43 (mcr-1), agar dilution, 35°C) was 0.5 µg/mL (≈ 1.3 µM), the MIC ([4]; 18 h, Escherichia coli 17-R28 (CRE, NDM-1-producing), agar dilution, 35°C) was 0.25 µg/mL (≈ 0.652 µM) and the MIC ([4]; ATCC2469, 18 h, Escherichia coli ATCC 2469 (CRE, NDM-1-producing), agar dilution, 35°C, 18 hours) was 0.25 µg/mL (≈ 0.652 µM). The MIC ([4]; ATCC35218, 18 h) was 0.25 µg/mL (≈ 0.652 µM), the MIC ([5]; Pseudomonas aeruginosa, PAO1, 18 h) was 1 µg/mL (≈ 2.61 µM) and the MIC ([6]; Proteus mirabilis, ATCC49565, 18 h) was 1 µg/mL (≈ 2.61 µM). It also gave an MIC ([7]; Serratia marcescens, ATCC21074, 18 h) of 0.25 µg/mL (≈ 0.652 µM), an MIC ([8]; Citrobacter freundii, ATCC43864, 18 h) of 0.25 µg/mL (≈ 0.652 µM) and an MIC ([9]; Proteus vulgaris, ATCC29905, 18 h) of 0.12 µg/mL (≈ 0.313 µM). It also gave an MIC ([10]; 18 h) of 0.5 µg/mL (≈ 1.3 µM), an MIC ([10]; 18 h, Klebsiella pneumoniae 09-20 (mcr-1), agar dilution, 35°C) of 0.5 µg/mL (≈ 1.3 µM) and an MIC ([10]; 18 h, Klebsiella pneumoniae 17-R27 (CRE), agar dilution, 35°C) of 0.25 µg/mL (≈ 0.652 µM). The MIC ([10]; ATCC700603, 18 h) was 1 µg/mL (≈ 2.61 µM), the MIC ([10]; ATCCBAA2146, 18 h, Klebsiella pneumoniae ATCC BAA-2146 (CRE, NDM-1-producing), agar dilution, 35°C, 18 hours) was 2 µg/mL (≈ 5.22 µM) and the Mortality rate ([11]; dose 150 mg/kg) was 0%. The Number of deaths ([11]; dose 150 mg/kg) was 0 individuals, the Mortality rate ([11]; dose 200 mg/kg) was 100% and the Number of deaths ([11]; dose 200 mg/kg) was 3 individuals.

COC[C@H]1C[C@H]1C#CC#Cc1ccc(C(=O)N[C@H](C(=O)NO)C(C)(C)N)cc1 [Ic, N-(S)-3-amino-1-hydroxyamino-3-methyl-1-oxobutan-2-yl-4-[[(1R,2S)-2-(methoxymethylene)cyclopropyl]but-1,3-diynyl]benzamide] was tested, and the MIC [1] was 0.06 µg/mL (≈ 0.156 µM), the MIC [2, 12] was 0.5 µg/mL (≈ 1.3 µM) and the MIC [3, 13] was 0.5 µg/mL (≈ 1.3 µM). It also gave an MIC [4, 14] of 0.25 µg/mL (≈ 0.652 µM), an MIC [4, 15] of 0.12 µg/mL (≈ 0.313 µM) and an MIC [4, 16] of 0.12 µg/mL (≈ 0.313 µM). It also gave an MIC [4, 17] of 0.12 µg/mL (≈ 0.313 µM), an MIC [5, 18] of 0.5 µg/mL (≈ 1.3 µM) and an MIC [6, 19] of 0.5 µg/mL (≈ 1.3 µM). The MIC [7, 20] was 0.25 µg/mL (≈ 0.652 µM), the MIC [8, 21] was 0.25 µg/mL (≈ 0.652 µM) and the MIC [9, 22] was 0.12 µg/mL (≈ 0.313 µM). The MIC [10, 23] was 0.25 µg/mL (≈ 0.652 µM), the MIC [10, 24] was 0.5 µg/mL (≈ 1.3 µM) and the MIC [10, 25] was 0.06 µg/mL (≈ 0.156 µM). For the same compound, the MIC [10, 26] was 1 µg/mL (≈ 2.61 µM), the MIC [10, 27] was 2 µg/mL (≈ 5.22 µM) and the Mortality rate ([11]; dose 100 mg/kg) was 0%. For the same compound, the Number of deaths ([11]; dose 100 mg/kg) was 0 individuals, the Mortality rate ([11]; dose 150 mg/kg) was 33% and the Number of deaths ([11]; dose 150 mg/kg) was 1 individuals. It also gave a Mortality rate ([11]; dose 200 mg/kg) of 100% and a Number of deaths ([11]; dose 200 mg/kg) of 3 individuals.

For CO[C@H]1CCC[C@@H]1C#CC#Cc1ccc(C(=O)N[C@H](C(=O)NO)C(C)(C)N)cc1 [A], the MIC [1] was 0.25 µg/mL (≈ 0.629 µM), the MIC [2, 12] was 0.5 µg/mL (≈ 1.26 µM) and the MIC [3, 13] was 2 µg/mL (≈ 5.03 µM). For the same compound, the MIC [4, 14] was 1 µg/mL (≈ 2.52 µM), the MIC [4, 15] was 0.25 µg/mL (≈ 0.629 µM) and the MIC [4, 16] was 0.12 µg/mL (≈ 0.302 µM). For the same compound, the MIC [4, 17] was 0.25 µg/mL (≈ 0.629 µM), the MIC [5, 18] was 2 µg/mL (≈ 5.03 µM) and the MIC [6, 19] was 1 µg/mL (≈ 2.52 µM). The MIC [7, 20] was 0.25 µg/mL (≈ 0.629 µM), the MIC [8, 21] was 0.25 µg/mL (≈ 0.629 µM) and the MIC [9, 22] was 0.5 µg/mL (≈ 1.26 µM). For the same compound, the MIC [10, 23] was 1 µg/mL (≈ 2.52 µM), the MIC [10, 24] was 1 µg/mL (≈ 2.52 µM) and the MIC [10, 25] was 0.5 µg/mL (≈ 1.26 µM). The MIC [10, 26] was 8 µg/mL (≈ 20.1 µM), the MIC [10, 27] was 8 µg/mL (≈ 20.1 µM) and the Mortality rate ([11]; dose 150 mg/kg) was 0%. For the same compound, the Number of deaths ([11]; dose 150 mg/kg) was 0 individuals, the Mortality rate ([11]; dose 200 mg/kg) was 100% and the Number of deaths ([11]; dose 200 mg/kg) was 3 individuals.
